Assays:
[1] = molecular target: GDP-bound HRAS wild-type protein (Homo sapiens, UniProt P01112); test: Binding to HRAS by surface plasmon resonance (SPR), Single Cycle Kinetics; conditions: SPR, GDP-bound HRAS wild-type vs GDP-bound KRAS wild-type
[2] = molecular target: GDP-bound NRAS wild-type protein (Homo sapiens, UniProt P01111); test: Binding to NRAS by surface plasmon resonance (SPR), Single Cycle Kinetics; conditions: SPR, GDP-bound NRAS wild-type vs GDP-bound KRAS wild-type
Chain of GDP-bound NRAS wild-type protein (P01111 whole entry): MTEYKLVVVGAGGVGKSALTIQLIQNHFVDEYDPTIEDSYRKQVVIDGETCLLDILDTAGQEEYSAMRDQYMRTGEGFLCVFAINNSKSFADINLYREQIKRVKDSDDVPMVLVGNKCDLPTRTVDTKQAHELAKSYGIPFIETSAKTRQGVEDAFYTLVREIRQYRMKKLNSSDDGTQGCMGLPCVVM

Chain of GDP-bound HRAS wild-type protein (P01112 whole entry): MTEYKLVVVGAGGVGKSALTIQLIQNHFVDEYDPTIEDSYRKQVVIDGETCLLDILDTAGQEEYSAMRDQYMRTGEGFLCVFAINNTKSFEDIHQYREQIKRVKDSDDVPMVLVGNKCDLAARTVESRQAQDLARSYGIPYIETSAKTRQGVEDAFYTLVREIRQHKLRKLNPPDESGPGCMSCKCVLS

Compound	HRAS/KRAS (ratio of KD value with respect to HRAS to KD value with respect to KRAS) [1]	NRAS/KRAS (ratio of KD value with respect to NRAS to KD value with respect to KRAS) [2]
CCC[C@H]1C(=O)N[C@@H]([C@@H](C)CC)C(=O)N(C)CC(=O)N(C)[C@H]2C/C=C\CCN(C2=O)[C@@H](CC2CCC(F)(F)CC2)C(=O)N(C)CC(=O)N[C@@H](CCc2ccc(C(F)(F)F)c(OC)c2)C(=O)N2C[C@H](OCC)C[C@H]2C(=O)N(C)C2(CCC2)C(=O)N(C)[C@@H](C2CCCC2)C(=O)N(C)[C@H](C(=O)N(C)C)CC(=O)N1C [PP2348]	A (a compound having 10 or more and less than 20 is denoted as A)	A (a compound having 10 or more and less than 20 is denoted as A)
CCC[C@H]1C(=O)N[C@@H]([C@@H](C)CC)C(=O)N(C2CC2)CC(=O)N(C)[C@H]2C/C=C\CCN(C2=O)[C@@H](CC2CCC(F)(F)CC2)C(=O)N(C)CC(=O)N[C@@H](CCc2ccc(C(F)(F)F)c(OC)c2)C(=O)N2C[C@H](OCC)C[C@H]2C(=O)N(C)C2(CCC2)C(=O)N(C)[C@@H](C(CC)CC)C(=O)N(C)[C@H](C(=O)N(C)C)CC(=O)N1C [PP2349]	A (a compound having 10 or more and less than 20 is denoted as A)	A (a compound having 10 or more and less than 20 is denoted as A)
CCCOC[C@H]1C(=O)N[C@@H]([C@@H](C)CC)C(=O)N(C)CC(=O)N(C)[C@H]2C/C=C\CCN(C2=O)[C@@H](CC2CCC(F)(F)CC2)C(=O)N(C)CC(=O)N[C@@H](CCc2ccc(C(F)(F)F)c(OC)c2)C(=O)N2C[C@H](OCC)C[C@H]2C(=O)N(C)C2(CCC2)C(=O)N(C)[C@@H](C2CCCC2)C(=O)N(C)[C@H](C(=O)N(C)C)CC(=O)N1C [PP2350]	A (a compound having 10 or more and less than 20 is denoted as A)	A (a compound having 10 or more and less than 20 is denoted as A)
CCOC[C@H]1C(=O)N[C@@H]([C@@H](C)CC)C(=O)N(C2CC2)CC(=O)N(C)[C@H]2C/C=C\CCN(C2=O)[C@@H](CC2CCC(F)(F)CC2)C(=O)N(C)CC(=O)N[C@@H](CCc2ccc(C(F)(F)F)c(OC)c2)C(=O)N2C[C@H](OCC)C[C@H]2C(=O)N(C)C2(CCC2)C(=O)N(C)[C@@H](C(CC)CC)C(=O)N(C)[C@H](C(=O)N(C)C)CC(=O)N1C [PP2351]	A (a compound having 10 or more and less than 20 is denoted as A)	A (a compound having 10 or more and less than 20 is denoted as A)
CCC[C@H]1C(=O)N[C@@H]([C@@H](C)CC)C(=O)N(C2CC2)CC(=O)N(C)[C@H]2C/C=C\CCN(C2=O)[C@@H](CC2CCC(F)(F)CC2)C(=O)N(C)CC(=O)N[C@@H](CCc2ccc(C(F)(F)F)c(OC)c2)C(=O)N2C[C@H](OCC)C[C@H]2C(=O)N(C)C2(CCC2)C(=O)N(C)[C@@H](C2CCCC2)C(=O)N(C)[C@H](C(=O)N(C)C)CC(=O)N1C [PP2352]	A (a compound having 10 or more and less than 20 is denoted as A)	A (a compound having 10 or more and less than 20 is denoted as A)
CCC[C@H]1C(=O)N[C@@H]([C@@H](C)CC)C(=O)N2CCC[C@H]2C(=O)N(C)[C@H]2C/C=C\CCN(C2=O)[C@@H](CC2CCC(F)(F)CC2)C(=O)N(C)CC(=O)N[C@@H](CCc2ccc(C(F)(F)F)c(OC)c2)C(=O)N2C[C@H](OCC)C[C@H]2C(=O)N(C)C2(CCC2)C(=O)N(C)[C@@H](C(CC)CC)C(=O)N(C)[C@H](C(=O)N(C)C)CC(=O)N1C [PP2353]	A (a compound having 10 or more and less than 20 is denoted as A)	A (a compound having 10 or more and less than 20 is denoted as A)
CCCOC[C@H]1C(=O)N[C@@H]([C@@H](C)CC)C(=O)N(C2CC2)CC(=O)N(C)[C@H]2C/C=C\CCN(C2=O)[C@@H](CC2CCC(F)(F)CC2)C(=O)N(C)CC(=O)N[C@@H](CCc2ccc(C(F)(F)F)c(OC)c2)C(=O)N2C[C@H](OCC)C[C@H]2C(=O)N(C)C2(CCC2)C(=O)N(C)[C@@H](C2CCCC2)C(=O)N(C)[C@H](C(=O)N(C)C)CC(=O)N1C [PP2354]	A (a compound having 10 or more and less than 20 is denoted as A)	A (a compound having 10 or more and less than 20 is denoted as A)
CCOC[C@H]1C(=O)N[C@@H]([C@@H](C)CC)C(=O)N2CCC[C@H]2C(=O)N(C)[C@H]2C/C=C\CCN(C2=O)[C@@H](CC2CCC(F)(F)CC2)C(=O)N(C)CC(=O)N[C@@H](CCc2ccc(C(F)(F)F)c(OC)c2)C(=O)N2C[C@H](OCC)C[C@H]2C(=O)N(C)C2(CCC2)C(=O)N(C)[C@@H](C(CC)CC)C(=O)N(C)[C@H](C(=O)N(C)C)CC(=O)N1C [PP2355]	A (a compound having 10 or more and less than 20 is denoted as A)	AA (a compound having 20 or more is denoted as AA)
CCC[C@H]1C(=O)N[C@@H]([C@@H](C)CC)C(=O)N2CCC[C@H]2C(=O)N(C)[C@H]2C/C=C\CCN(C2=O)[C@@H](CC2CCC(F)(F)CC2)C(=O)N(C)CC(=O)N[C@@H](CCc2ccc(C(F)(F)F)c(OC)c2)C(=O)N2C[C@H](OCC)C[C@H]2C(=O)N(C)C2(CCC2)C(=O)N(C)[C@@H](C2CCCC2)C(=O)N(C)[C@H](C(=O)N(C)C)CC(=O)N1C [PP2356]	A (a compound having 10 or more and less than 20 is denoted as A)	A (a compound having 10 or more and less than 20 is denoted as A)
CCCOC[C@H]1C(=O)N[C@@H]([C@@H](C)CC)C(=O)N2CCC[C@H]2C(=O)N(C)[C@H]2C/C=C\CCN(C2=O)[C@@H](CC2CCC(F)(F)CC2)C(=O)N(C)CC(=O)N[C@@H](CCc2ccc(C(F)(F)F)c(OC)c2)C(=O)N2C[C@H](OCC)C[C@H]2C(=O)N(C)C2(CCC2)C(=O)N(C)[C@@H](C2CCCC2)C(=O)N(C)[C@H](C(=O)N(C)C)CC(=O)N1C [PP2357]	B (a compound having 3 or more and less than 10 is denoted as B)	A (a compound having 10 or more and less than 20 is denoted as A)
CCC[C@H]1C(=O)N[C@@H]([C@@H](C)CC)C(=O)N(C)CC(=O)N(C)[C@H]2C/C=C\CCN(C2=O)[C@@H](Cc2ccc(C(F)(F)F)cc2)C(=O)N(C)CC(=O)N[C@@H](CCc2ccc(C(F)(F)F)c(OC)c2)C(=O)N2C[C@@H](C)C[C@H]2C(=O)N(C)C2(CCC2)C(=O)N(C)[C@@H](C2CCCC2)C(=O)N(C)[C@H](C(=O)N(C)C)CC(=O)N1C [PP2358]	B (a compound having 3 or more and less than 10 is denoted as B)	A (a compound having 10 or more and less than 20 is denoted as A)
CCOC[C@H]1C(=O)N[C@@H]([C@@H](C)CC)C(=O)N(C)CC(=O)N(C)[C@H]2C/C=C\CCN(C2=O)[C@@H](Cc2ccc(C(F)(F)F)cc2)C(=O)N(C)CC(=O)N[C@@H](CCc2ccc(C(F)(F)F)c(OC)c2)C(=O)N2C[C@@H](C)C[C@H]2C(=O)N(C)C2(CCC2)C(=O)N(C)[C@@H](C2CCCC2)C(=O)N(C)[C@H](C(=O)N(C)C)CC(=O)N1C [PP2359]	B (a compound having 3 or more and less than 10 is denoted as B)	A (a compound having 10 or more and less than 20 is denoted as A)
CCC[C@H]1C(=O)N[C@@H]([C@@H](C)CC)C(=O)N(C2CC2)CC(=O)N(C)[C@H]2C/C=C\CCN(C2=O)[C@@H](Cc2ccc(C(F)(F)F)cc2)C(=O)N(C)CC(=O)N[C@@H](CCc2ccc(C(F)(F)F)c(OC)c2)C(=O)N2C[C@@H](C)C[C@H]2C(=O)N(C)C2(CCC2)C(=O)N(C)[C@@H](C2CCCC2)C(=O)N(C)[C@H](C(=O)N(C)C)CC(=O)N1C [PP2360]	B (a compound having 3 or more and less than 10 is denoted as B)	A (a compound having 10 or more and less than 20 is denoted as A)
CCC[C@H]1C(=O)N[C@@H]([C@@H](C)CC)C(=O)N2CCC[C@H]2C(=O)N(C)[C@H]2C/C=C\CCN(C2=O)[C@@H](Cc2ccc(C(F)(F)F)cc2)C(=O)N(C)CC(=O)N[C@@H](CCc2ccc(C(F)(F)F)c(OC)c2)C(=O)N2C[C@@H](C)C[C@H]2C(=O)N(C)C2(CCC2)C(=O)N(C)[C@@H](C2CCCC2)C(=O)N(C)[C@H](C(=O)N(C)C)CC(=O)N1C [PP2362]	A (a compound having 10 or more and less than 20 is denoted as A)	A (a compound having 10 or more and less than 20 is denoted as A)
CCOC[C@H]1C(=O)N[C@@H]([C@@H](C)CC)C(=O)N2CCC[C@H]2C(=O)N(C)[C@H]2C/C=C\CCN(C2=O)[C@@H](Cc2ccc(C(F)(F)F)cc2)C(=O)N(C)CC(=O)N[C@@H](CCc2ccc(C(F)(F)F)c(OC)c2)C(=O)N2C[C@@H](C)C[C@H]2C(=O)N(C)C2(CCC2)C(=O)N(C)[C@@H](C2CCCC2)C(=O)N(C)[C@H](C(=O)N(C)C)CC(=O)N1C [PP2363]	B (a compound having 3 or more and less than 10 is denoted as B)	A (a compound having 10 or more and less than 20 is denoted as A)
CCC[C@H]1C(=O)N[C@@H]([C@@H](C)CC)C(=O)N(C)CC(=O)N(C)[C@H]2C/C=C\CCN(C2=O)[C@@H](Cc2ccc(C)cc2)C(=O)N(C)CC(=O)N[C@@H](CCc2ccc(C(F)(F)F)c(OC)c2)C(=O)N2C[C@@H](C)C[C@H]2C(=O)N(C)C2(CCC2)C(=O)N(C)[C@@H](C2CCCC2)C(=O)N(C)[C@H](C(=O)N(C)C)CC(=O)N1C [PP2364]	B (a compound having 3 or more and less than 10 is denoted as B)	A (a compound having 10 or more and less than 20 is denoted as A)
